What was measured:
DCs [1] = test: DC expression of CD83 (flow cytometry); format: cell-based, human; details: Example 13, FIG. 13(A); C1 10 nM, TGFbeta 10 ng/ml, RA 2 uM; compared to control DCs
Protocol: (§1) CD14^+ monocytes were cultured at 1.25×10^6 cells/mi for 7 days in GMP DC Medium (CellGenix, Freiburg, Germany) containing HEPES, GlutaMAX and Penicillin-Streptomycin solution (Thermo Fisher, Waltham, MA) in the presence of granulocyte-macrophage colony-stimulating factor (GM-CSF; 100 ng/ml; PeproTech, London, UK) and interleukin-4 (IL-4; 100 ng/ml; PeproTech). Cells were replenished on day 3 with fresh medium and cytokines. […]
(§2) Cell surface expression was investigated using the following fluorescently labeled antibodies: CD11c (B-Ly6), CD83 (HB15e), CD86 (BU63), ILT3 (ZM4.1), CD141 (M80), GARP (7611), CD103 (B-Ly7), MERTK (590H11G1E3), BTLA (J168-540), CD49b (P1E6-05), HLA-G (87G), LAP (FNLAP), from BD Biosciences (Franklin Lakes, NJ), BioLegend (San Diego, CA) and Thermo Fisher. DCs were washed and resuspended in staining buffer (phosphate-buffered saline supplemented with 0.5% BSA and 2 mM EDTA) and incubated with antibody for 20 min followed by washing before acquisition on a MACSQuant 10 flow cytometer (Miltenyi Biotec) and analyzed using FlowJo software (BD Biosciences). […]

DCs [2] = test: DC expression of CD86 (flow cytometry); format: cell-based, human
Protocol: as §1, §2

CD4^+ T cells [3] = test: Capacity of DCs to induce T cell proliferation in allogeneic MLR (3H-thymidine); format: cell-based, human; details: for induction of T cell proliferation (CPM): Example 13, FIG. 13(G), compared to control DCs; for effect on the tolerogenic effect of RA: Example 13, summary
Protocol: (§3) CD14^+ monocytes were cultured at 1.25×10^6 cells/mi for 7 days in GMP DC Medium (CellGenix, Freiburg, Germany) containing HEPES, GlutaMAX and Penicillin-Streptomycin solution (Thermo Fisher, Waltham, MA) in the presence of granulocyte-macrophage colony-stimulating factor (GM-CSF; 100 ng/ml; PeproTech, London, UK) and interleukin-4 (IL-4; 100 ng/ml; PeproTech). Cells were replenished on day 3 with fresh medium and cytokines. Control DCs were differentiated in GM-CSF and IL-4 without addition of any further compounds and optionally further were treated with lipopolysaccharide (LPS; 0.5 ug/ml; Sigma-Aldrich, Saint Louise, MO) or a pro-inflammatory cytokine cocktail consisting of TNFalpha (10 ng/ml; PeproTech), IL-1 beta (10 ng/ml; PeproTech), and prostaglandin E2 (PGE2; 1 ug/ml; Sigma) on day 6 to generate stimulated immunogenic DCs. Tolerogenic DCs (tolDCs) were generated by treatment with various tolerogenic compounds: AhR agonist “C1” (C1; 20 nM; IMA-06201; Immunahr A B, Lund, Sweden) on days 0 and 3, TGFbeta1 (10 or 20 ng/ml; PeproTech) on day 3, and retinoic acid (2 uM; Sigma-Aldrich) on day 6. Control tolDC for comparison were established by treatment with Dexamethasone (Dex; 100 nM; Sigma-Aldrich) and Vitamin D3 (VitD3; 100 nM, StemCell Technologies) on day 3. Phenotypic stability of TolDCs was investigated by addition of LPS (0.5 ug/ml) or a pro-inflammatory cytokine cocktail consisting of TNFalpha (10 ng/ml), IL-1beta (10 ng/ml), PGE2 (1 ug/ml), and for Example 24 also IL-6 (10 ng/ml), for the last 24 hours of culture. On day 7, DCs were harvested and washed extensively before phenotyping and functional assays were performed.
In order to analyse the T cell stimulatory capacity of the generated DC populations, allogeneic MLRs were performed. DC/T cell cultures were carried out in complete medium: RPMI-1640 (Thermo Fisher) containing fetal bovine serum (FBS; 10%; Thermo Fisher), HEPES, GlutaMAX and Penicillin-Streptomycin solution. T cells (10^5 cells/well) were cultured with DCs at a T cell: DC ratio of 10:1 for 5-7 days. Proliferation was determined by incorporation of ^3H-thymidine for the last 18 hours of culture. For determination of CD4^+CD49b^+LAG3^+ Tr1 cells, cells were phenotyped as described below. For determination of CD25^hiFoxp3^+ Treg induction, the T cells from the MLR cultures were rested for additionally 7 days in complete medium containing IL-2 (20 IU/ml; PeproTech) and then subjected to phenotyping as described below.
Control DCs were differentiated from CD14^+ monocytes by culturing in GM-CSF and IL-4 for 7 days. Control DCs were either unstimulated or stimulated with LPS which was added on day 6 to generate immunogenic control DCs. […] TolDCs for comparison were established by treatment with Dex at 100 nM and VitD3 at 100 nM on day 3. On day 6, some of the DCs were treated with LPS (FIG. 5 (A); black bars) or a pro-inflammatory cytokine cocktail consisting of TNFalpha, IL-1beta and PGE2 (FIG. 5 (B); black bars) to test for phenotypical stability under various conditions. All cells were harvested on day 7 and cocultures with CD4^+ T cells were setup in an MLR setting at a T cell:DC ratio of 10:1. At the end of the 7-day cultures, proliferation of T cells was determined by ^3H-thymidine incorporation.
Various compounds were tested for their capacity to induce a tolerogenic phenotype in DCs. […] AhR agonist C1 (AhR ag) at 10 nM on days 0 and 3, TGFbeta at 10 ng/ml on day 3, and RA at 2 uM on day 6. […]

DCs [4] = test: DC expression of CD103 (flow cytometry); format: cell-based, human; details: Example 13, FIG. 13(E); compared to control DCs
Protocol: as §1, §2

CD4^+ T cells [5] = test: Capacity of DCs to induce CD25^hiFoxp3^+ Tregs in time-extended MLR; format: cell-based, human; details: Example 13, FIG. 13(H); compared to control DCs
Protocol: as §3
In order to analyse the T cell stimulatory capacity of the generated DC populations, allogeneic MLRs were performed. DC/T cell cultures were carried out in complete medium: RPMI-1640 (Thermo Fisher) containing fetal bovine serum (FBS; 10%; Thermo Fisher), HEPES, GlutaMAX and Penicillin-Streptomycin solution. […] Proliferation was determined by incorporation of ^3H-thymidine for the last 18 hours of culture. […]

human DCs = details: cited from earlier work
DCs [6] = test: DC expression of ILT3 (flow cytometry); format: cell-based, human; details: Example 13, FIG. 13(C); compared to control DCs
Protocol: as §1, §2

DCs [7] = test: DC frequency of CD141^+GARP^+ cells (flow cytometry); format: cell-based, human; details: Example 13, FIG. 13(F); compared to control DCs
Protocol: as §1, §2

T cells = details: Bakdash et al, 2015; cited from earlier work
DCs [8] = test: DC tolerogenic index ILT3/CD86 (MFI ratio); format: cell-based, human; details: Example 13, FIG. 13(D); compared to control DCs
From the text: The optimal tolDCs should express both low levels of co-stimulatory molecules and high levels of tolerogenic molecules. Thus, to take into account the combined effect of this, the ratio between the expression levels of representative tolerogenic and co-stimulatory molecules could be depicted as a proxy for the tolerogenic capacity of a certain subset of tolDCs. FIGS. 4 (A) and (B) show such tolerogenic index, defined as the ILT3/CD86 expression (MFI) ratio, on DCs cultured under various conditions in the absence (FIG. 4 (A); grey bars) or presence of LPS (FIG. 4 (B); black bars).

[9] = during DC differentiation and maturation

| Molecule | CD83 expression (MFI) on DCs (DCs [1]) | CD86 expression (MFI) on DCs (DCs [2]; Example 13, FIG. 13(B), compared to control DCs) | induction of T cell proliferation (CPM) (CD4^+ T cells [3]) | effect on the tolerogenic effect of RA (CD4^+ T cells [3]) | CD103 expression (MFI) on DCs (DCs [4]) | induction of Tregs (CD4^+CD25^+Foxp3^+) (CD4^+ T cells [5]) | differentiation of naïve T cells into Treg cells by treated DCs (human DCs; Jurado-Manzano et al, 2017) | expression of the enzyme IDO (human DCs; [9]) | production of pro-inflammatory cytokines (human DCs; [9]) | CD86 expression (MFI) on DCs (DCs [2]; FIG. 2(B), whether or not stimulated with LPS, compared to corresponding control DCs) | ILT3 expression (MFI) on DCs (DCs [6]) | frequency of GARP^+CD141^+ cells (DCs [7]) | differentiation of Treg cells (T cells) | gut-homing specificity in T cells (T cells) | tolerogenic ratio (ILT3/CD86) (DCs [8]) |
| --- | --- | --- | --- | --- | --- | --- | --- | --- | --- | --- | --- | --- | --- | --- | --- |
| CCN(C(=O)c1c(O)c2c(Cl)cccc2n(C)c1=O)c1ccccc1 [AhR agonist, N-ethyl-N-phenyl-5-chloro-1,2-dihydro-4-hydroxy-1-methyl-2-oxo-quinoline-3-carboxamide] | lower expression | lower expression | slightly more T cell proliferation | strengthens the tolerogenic effect of RA | higher expression of CD103 | slightly more Tregs |  |  |  |  |  |  |  |  |  |
| O=Cc1c2c(cc3c1=Nc1ccccc1-3)=Nc1ccccc1-2 [FICZ, 6-formylindolo[3,2-b]carbazole] |  |  |  |  |  |  | able to induce the differentiation | increased expression of the enzyme IDO | reduced production of pro-inflammatory cytokines such as IL-6 and TNF-alpha |  |  |  |  |  |  |
| CC1=C(/C=C/C(C)=C/C=C/C(C)=C/C(=O)O)C(C)(C)CCC1 [RA, all-trans retinoic acid] |  |  | less T cell proliferation |  |  | more Tregs |  |  |  | no resistance to upregulate CD86 | higher expression of ILT3 | higher frequency of GARP^+CD141^+ cells | enhance the differentiation of Foxp3^+ inducible as well as IL-10 producing Treg cells | induce gut-homing specificity in T cells |  |
| TGFbeta: transforming growth factor beta; TGFbeta1 (PeproTech) used in the examples |  |  | less T cell proliferation | strengthens the tolerogenic effect of RA | slightly higher | more Tregs |  |  |  |  |  |  |  |  | slightly higher |
